The values below come from ChEMBL document CHEMBL5291721, “A preclinical secondary pharmacology resource illuminates target-adverse drug reaction associations of marketed drugs” (Nat Commun, 2023).

One test addresses Bile salt export pump (Homo sapiens, UniProt O95342). It counts as functional.
For test [1], the target named is Voltage-gated inwardly rectifying potassium channel KCNH2 (Homo sapiens, UniProt Q12809). It counts as functional. The settings on record: read-out: AC50.

The structures appear in SMILES notation.
Also: assay procedure not described here.

Chain of Bile salt export pump (O95342 whole entry): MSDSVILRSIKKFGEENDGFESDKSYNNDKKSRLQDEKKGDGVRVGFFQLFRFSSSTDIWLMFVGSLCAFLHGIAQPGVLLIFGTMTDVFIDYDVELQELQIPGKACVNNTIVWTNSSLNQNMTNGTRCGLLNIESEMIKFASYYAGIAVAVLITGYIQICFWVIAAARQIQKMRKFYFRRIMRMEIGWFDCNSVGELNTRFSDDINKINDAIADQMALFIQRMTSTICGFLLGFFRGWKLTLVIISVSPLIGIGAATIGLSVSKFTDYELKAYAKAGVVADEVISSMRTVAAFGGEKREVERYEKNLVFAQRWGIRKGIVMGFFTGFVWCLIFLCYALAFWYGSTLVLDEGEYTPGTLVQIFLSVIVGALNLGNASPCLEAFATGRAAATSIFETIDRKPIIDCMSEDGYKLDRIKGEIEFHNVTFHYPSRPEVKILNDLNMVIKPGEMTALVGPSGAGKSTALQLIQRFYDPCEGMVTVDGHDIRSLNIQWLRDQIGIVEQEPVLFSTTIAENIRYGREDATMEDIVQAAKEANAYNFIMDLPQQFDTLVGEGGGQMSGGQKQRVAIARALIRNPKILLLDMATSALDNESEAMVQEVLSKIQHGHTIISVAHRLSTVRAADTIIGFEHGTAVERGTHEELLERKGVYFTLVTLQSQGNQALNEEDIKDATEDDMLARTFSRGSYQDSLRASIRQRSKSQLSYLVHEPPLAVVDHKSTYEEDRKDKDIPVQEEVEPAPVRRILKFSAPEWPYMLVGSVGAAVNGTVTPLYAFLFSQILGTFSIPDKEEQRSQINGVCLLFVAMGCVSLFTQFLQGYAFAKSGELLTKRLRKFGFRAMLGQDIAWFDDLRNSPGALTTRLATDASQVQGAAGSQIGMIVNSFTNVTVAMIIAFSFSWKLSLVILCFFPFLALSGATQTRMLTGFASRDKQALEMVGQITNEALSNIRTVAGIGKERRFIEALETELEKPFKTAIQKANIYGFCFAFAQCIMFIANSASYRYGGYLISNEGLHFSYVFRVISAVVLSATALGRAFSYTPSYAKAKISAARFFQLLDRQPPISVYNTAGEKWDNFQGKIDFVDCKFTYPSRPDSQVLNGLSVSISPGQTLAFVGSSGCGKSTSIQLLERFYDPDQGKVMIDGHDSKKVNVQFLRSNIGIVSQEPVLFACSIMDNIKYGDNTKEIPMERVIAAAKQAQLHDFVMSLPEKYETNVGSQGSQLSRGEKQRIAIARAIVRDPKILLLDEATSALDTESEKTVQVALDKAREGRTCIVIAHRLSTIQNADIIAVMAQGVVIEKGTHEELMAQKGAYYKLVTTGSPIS
Chain of Voltage-gated inwardly rectifying potassium channel KCNH2 (Q12809 whole entry): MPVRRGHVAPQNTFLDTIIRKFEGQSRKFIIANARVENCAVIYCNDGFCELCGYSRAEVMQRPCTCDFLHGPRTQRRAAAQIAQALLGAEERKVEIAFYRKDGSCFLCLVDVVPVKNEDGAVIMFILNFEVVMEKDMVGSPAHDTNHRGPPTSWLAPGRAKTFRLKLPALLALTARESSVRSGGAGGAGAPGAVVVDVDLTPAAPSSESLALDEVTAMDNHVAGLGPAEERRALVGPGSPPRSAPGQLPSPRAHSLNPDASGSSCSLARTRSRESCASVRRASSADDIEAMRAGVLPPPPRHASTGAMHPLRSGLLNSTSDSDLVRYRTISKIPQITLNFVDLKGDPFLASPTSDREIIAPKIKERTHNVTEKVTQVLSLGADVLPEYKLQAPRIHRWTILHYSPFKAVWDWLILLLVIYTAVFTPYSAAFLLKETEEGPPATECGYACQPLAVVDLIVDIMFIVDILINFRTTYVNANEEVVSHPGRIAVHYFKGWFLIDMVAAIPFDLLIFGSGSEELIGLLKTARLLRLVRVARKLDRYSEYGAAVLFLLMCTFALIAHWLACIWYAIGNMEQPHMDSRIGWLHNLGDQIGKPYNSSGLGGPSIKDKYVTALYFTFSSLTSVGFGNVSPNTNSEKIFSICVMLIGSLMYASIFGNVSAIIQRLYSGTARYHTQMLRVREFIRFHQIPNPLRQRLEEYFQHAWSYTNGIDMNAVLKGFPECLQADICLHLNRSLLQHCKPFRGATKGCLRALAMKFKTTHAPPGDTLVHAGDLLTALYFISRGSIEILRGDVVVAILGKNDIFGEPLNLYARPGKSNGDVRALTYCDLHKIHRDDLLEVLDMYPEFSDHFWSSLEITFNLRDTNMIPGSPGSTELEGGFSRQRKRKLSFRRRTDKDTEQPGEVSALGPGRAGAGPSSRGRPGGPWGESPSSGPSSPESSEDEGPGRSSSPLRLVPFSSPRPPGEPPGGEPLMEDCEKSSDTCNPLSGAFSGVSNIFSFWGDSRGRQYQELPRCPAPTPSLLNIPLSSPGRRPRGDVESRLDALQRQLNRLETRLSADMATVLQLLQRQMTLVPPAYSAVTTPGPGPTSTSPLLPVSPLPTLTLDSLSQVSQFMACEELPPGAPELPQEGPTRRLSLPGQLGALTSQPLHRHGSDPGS

Turning to `CC(=N)N1CC[C@H](SC2=C(C(=O)O)N3C(=O)[C@H]([C@@H](C)O)[C@H]3C2)C1`, the AC50 at Bile salt export pump is over 300 µM; in test [1] it was 15 µM.

With `CC(/C=C1\SC(=S)N(CC(=O)O)C1=O)=C\c1ccccc1`, the AC50 was 1.6 µM on Bile salt export pump and over 30 µM in test [1].

In the case of `CC1(C)S[C@@H]2[C@H](NC(=O)[C@H](N)c3ccc(O)cc3)C(=O)N2[C@H]1C(=O)O` [AMOXICILLIN], the AC50 at Bile salt export pump is over 300 µM.

With `O=C1CN2Cc3c(ccc(Cl)c3Cl)N=C2N1` [ANAGRELIDE], the results for the concentration at half-maximal activity (AC50) (at Bile salt export pump; in test [1]) were over 300 µM and over 30 µM, respectively.

Turning to `CNCC[C@@H](Oc1ccccc1C)c1ccccc1` [ATOMOXETINE], the half-maximal activity concentration (AC50) at Bile salt export pump was over 300 µM.

As for `CCc1oc2ccccc2c1C(=O)c1cc(Br)c(O)c(Br)c1` [BENZBROMARONE], the AC50 at Bile salt export pump is 3 µM; in test [1], over 30 µM.

On to `C=C(C)[C@@H]1CCC(C)=C[C@H]1c1c(O)cc(CCCCC)cc1O` [CANNABIDIOL], for which the AC50 on Bile salt export pump was 53 µM.

For the compound `CO/N=C(\C(=O)N[C@@H]1C(=O)N2C(C(=O)O)=C(COC(N)=O)CS[C@H]12)c1ccco1` [CEFUROXIME], the AC50 at Bile salt export pump was over 300 µM; in test [1], over 30 µM.

For `[H]/N=C(\N/C(=N/[H])NCCCCCCNC(=N)NC(=N)Nc1ccc(Cl)cc1)Nc1ccc(Cl)cc1` [CHLORHEXIDINE], the half-maximal activity concentration (AC50) at Bile salt export pump is 170 µM; in test [1], 16.3 µM.

On to `Clc1cccc(Cl)c1N=C1NCCN1` [CLONIDINE], for which the AC50 at Bile salt export pump is over 300 µM.

On to `COC(=O)[C@H](c1ccccc1Cl)N1CCc2sccc2C1` [CLOPIDOGREL], for which the AC50 is 40 µM on Bile salt export pump and 26.1 µM in test [1].

In the case of `CN1C[C@H](C(=O)N[C@]2(C)O[C@@]3(O)[C@@H]4CCCN4C(=O)[C@H](Cc4ccccc4)N3C2=O)C[C@@H]2c3cccc4[nH]cc(c34)C[C@H]21` [DIHYDROERGOTAMINE], the half-maximal activity concentration (AC50) stood at 28 µM at Bile salt export pump and 10 µM in test [1].

For `CNCC[C@H](Oc1cccc2ccccc12)c1cccs1` [DULOXETINE], the AC50 at Bile salt export pump is over 300 µM.

With `CC1(C)O[C@@H]2C[C@H]3[C@@H]4C[C@H](F)C5=CC(=O)C=C[C@]5(C)[C@H]4[C@@H](O)C[C@]3(C)[C@]2(C(=O)CO)O1` [FLUNISOLIDE], the half-maximal activity concentration (AC50) at Bile salt export pump was 77 µM; in test [1], over 30 µM.

On to `Nc1nc(O)c2ncn(COC(CO)CO)c2n1` [GANCICLOVIR], for which the AC50 at Bile salt export pump was over 300 µM; in test [1], over 30 µM.

Take `C[C@H]1Oc2cc(cnc2N)-c2c(nn(C)c2C#N)CN(C)C(=O)c2ccc(F)cc21` [LORLATINIB]: the AC50 on Bile salt export pump is 120 µM; in test [1] it was over 30 µM.

Take `Cc1cnc(NC(=O)C2=C(O)c3ccccc3S(=O)(=O)N2C)s1` [MELOXICAM]: the concentration at half-maximal activity (AC50) on Bile salt export pump is 160 µM; in test [1], over 30 µM.

Consider `CC[C@@H](CO)NC(=O)[C@@H]1C=C2c3cccc4[nH]cc(c34)C[C@H]2N(C)C1` [METHYLERGONOVINE], for which the half-maximal activity concentration (AC50) is over 300 µM at Bile salt export pump and over 30 µM in test [1].

As to `CNCCC=C1c2ccccc2CCc2ccccc21` [NORTRIPTYLINE], the values for the AC50 (on Bile salt export pump; in test [1]) were over 300 µM and 2.59 µM, respectively.

Take `COc1ccnc(C[S+]([O-])c2nc3ccc(OC(F)F)cc3[nH]2)c1OC` (configuration not stated) [PANTOPRAZOLE]: the half-maximal activity concentration (AC50) at Bile salt export pump was 190 µM; in test [1] it was over 30 µM.

For `COc1ccc(Cc2nccc3cc(OC)c(OC)cc23)cc1OC` [PAPAVERINE], the half-maximal activity concentration (AC50) turned out to be 46 µM on Bile salt export pump and 5.6 µM in test [1].

Consider `O=C1NC(=O)C(c2ccccc2)(c2ccccc2)N1` [PHENYTOIN], for which the AC50 on Bile salt export pump was over 300 µM.

For the compound `CC(C)C[C@H](CN)CC(=O)O` [PREGABALIN], the concentration at half-maximal activity (AC50) is over 300 µM on Bile salt export pump and over 30 µM in test [1].

For `CCOc1cc(CC(=O)N[C@@H](CC(C)C)c2ccccc2N2CCCCC2)ccc1C(=O)O` [REPAGLINIDE], the figures for the concentration at half-maximal activity (AC50) (on Bile salt export pump; in test [1]) were 9.33 µM and over 30 µM, respectively.

For `NC(=O)c1ncn([C@@H]2O[C@H](CO)[C@@H](O)[C@H]2O)n1` [RIBAVIRIN], the figures for the concentration at half-maximal activity (AC50) (on Bile salt export pump; in test [1]) were over 300 µM and over 30 µM, respectively.

`O=C(Nc1c(Cl)cncc1Cl)c1ccc(OC(F)F)c(OCC2CC2)c1` [ROFLUMILAST]: the AC50 on Bile salt export pump is 4 µM; in test [1], over 30 µM.

Take `CCCN(CCC)CCc1cccc2c1CC(=O)N2` [ROPINIROLE]: the AC50 on Bile salt export pump is over 300 µM.

Regarding `CCCN(CCc1cccs1)[C@H]1CCc2c(O)cccc2C1` [ROTIGOTINE], the AC50 at Bile salt export pump came out at 260 µM; in test [1] it was 3.8 µM.

For `CC[C@H]1OC(=O)[C@H](C)[C@@H](O[C@H]2C[C@@](C)(OC)[C@@H](O)[C@H](C)O2)[C@H](C)[C@@H](O[C@@H]2O[C@H](C)C[C@H](N(C)C)[C@H]2O)[C@](C)(O)C[C@@H](C)/C(=N\OCOCCOC)[C@H](C)[C@@H](O)[C@]1(C)O` [ROXITHROMYCIN], the AC50 at Bile salt export pump is over 300 µM; in test [1], over 30 µM.

Turning to `CC(C)N(CCCCOCC(=O)NS(C)(=O)=O)c1cnc(-c2ccccc2)c(-c2ccccc2)n1` [SELEXIPAG], the AC50 at Bile salt export pump is 5.7 µM; in test [1] it was over 30 µM.

For the compound `CC(=O)S[C@@H]1CC2=CC(=O)CC[C@]2(C)[C@H]2CC[C@@]3(C)[C@@H](CC[C@@]34CCC(=O)O4)[C@H]12` [SPIRONOLACTONE], the AC50 at Bile salt export pump is 26 µM; in test [1] it was over 30 µM.

For the compound `Cc1cc(CC(=O)O)n(C)c1C(=O)c1ccc(Cl)cc1` [ZOMEPIRAC], the concentration at half-maximal activity (AC50) was 72 µM at Bile salt export pump and over 30 µM in test [1].

Broadly, the AC50 is the midpoint of the concentration-response curve, whichever way the signal moves.
